# Target: Arabidopsis thaliana SHMT
# Assay: SHMT activity assay (ED50 SHMT), coupled with N5,N10-CH2-THF dehydrogenase, NADH at 340 nm
# Type: biochemical
# Details: Table 2; values given as upper bounds
# Method in brief: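 His-tagged SHMT purified on Ni-NTA. NADH formation followed at 340 nm for 30 min; ED50 from inhibition of initial velocity.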
row,Structure (SMILES),EC50
1,Cc1n[nH]c2c1C(c1cc(Cl)cc(Oc3ccccc3)c1)(C1CC1)C(C#N)=C(N)O2 (stereo not drawn) [Compound 2.153.],< 100 nM
2,Cc1n[nH]c2c1C(c1cc(Cl)cc(Cl)c1)(C1CCC1)C(C#N)=C(N)O2 (stereo not drawn) [Compound 2.154.],< 10 nM
3,CCc1n[nH]c2c1C(c1cc(Cl)cc(Cl)c1)(C1CCC1)C(C#N)=C(N)O2 (stereo not drawn) [Compound 2.155.],< 100 nM
4,Cc1n[nH]c2c1C(c1cc(F)cc(Cl)c1)(C1CCC1)C(C#N)=C(N)O2 (stereo not drawn) [Compound 2.157.],< 100 nM
5,CCC1(c2ccc(Oc3ccc(C(F)(F)F)cc3Cl)c(C)c2)C(C#N)=C(N)Oc2[nH]nc(C3CC3)c21 (stereo not drawn) [Compound 2.164.],< 10000 nM
6,CCC1(c2cccc(Cl)c2)C(C#N)=C(N)Oc2[nH]nc(C(F)F)c21 (stereo not drawn) [Compound 2.165.],< 1000 nM
7,CCC1(c2cc(C(F)(F)F)cc(C(F)(F)F)c2)C(C#N)=C(N)Oc2[nH]nc(C(F)F)c21 (stereo not drawn) [Compound 2.166.],< 100 nM
8,COc1ccc(C2(C(C)C)C(C#N)=C(N)Oc3[nH]nc(C)c32)cc1 (stereo not drawn) [Compound 2.167.],< 1000 nM
9,N#CC1=C(N)Oc2[nH]nc(C(F)F)c2C1(c1cc(Cl)cc(Cl)c1)C1CCC1 (stereo not drawn) [Compound 2.168.],< 100 nM
10,Cc1n[nH]c2c1C(c1cccc(C(F)(F)F)c1)(C1CCC1)C(C#N)=C(N)O2 (stereo not drawn) [Compound 2.169.],< 10 nM
11,CCc1n[nH]c2c1C(c1cccc(C(F)(F)F)c1)(C1CCC1)C(C#N)=C(N)O2 (stereo not drawn) [Compound 2.170.],< 100 nM
12,N#CC1=C(N)Oc2[nH]nc(C3CC3)c2C1(c1cccc(C(F)(F)F)c1)C1CCC1 (stereo not drawn) [Compound 2.171.],< 100 nM
13,Cc1n[nH]c2c1C(c1cccc(Cl)c1)(C1CCC1)C(C#N)=C(N)O2 (stereo not drawn) [Compound 2.172.],< 100 nM
14,CCc1n[nH]c2c1C(c1cccc(Cl)c1)(C1CCC1)C(C#N)=C(N)O2 (stereo not drawn) [Compound 2.173.],< 100 nM
15,N#CC1=C(N)Oc2[nH]nc(C3CC3)c2C1(c1cccc(Cl)c1)C1CCC1 (stereo not drawn) [Compound 2.174.],< 100 nM
16,N#CC1=C(N)Oc2[nH]nc(C(F)F)c2C1(c1cccc(C(F)(F)F)c1)C1CCC1 (stereo not drawn) [Compound 2.175.],< 1000 nM
17,COc1ccc(C2(C3CCC3)C(C#N)=C(N)Oc3[nH]nc(C)c32)cc1C(F)(F)F (stereo not drawn) [Compound 2.176.],< 10 nM
18,COc1ccc(C2(C3CCC3)C(C#N)=C(N)Oc3[nH]nc(C)c32)cc1Cl (stereo not drawn) [Compound 2.178.],< 10 nM
19,Cc1n[nH]c2c1C(c1cc(Cl)cc(Oc3ccccc3)c1)(C1CCC1)C(C#N)=C(N)O2 (stereo not drawn) [Compound 2.179.],< 100 nM
20,Cc1n[nH]c2c1C(c1cc(Cl)cc(Cl)c1)(C1(F)CCC1)C(C#N)=C(N)O2 (stereo not drawn) [Compound 2.180.],< 100 nM
21,Cc1n[nH]c2c1C(c1ccc(F)c(Cl)c1)(C1CCC1)C(C#N)=C(N)O2 (stereo not drawn) [Compound 2.182.],< 100 nM
22,Cc1n[nH]c2c1C(c1ccc(OC(F)(F)F)cc1)(C1CCC1)C(C#N)=C(N)O2 (stereo not drawn) [Compound 2.183.],< 1000 nM
23,Cc1n[nH]c2c1C(c1cc(Cl)cc(-c3ccccc3)c1)(C1CC1)C(C#N)=C(N)O2 (stereo not drawn) [Compound 2.184.],< 100 nM
24,Cc1n[nH]c2c1C(c1ccc(OCc3ccccc3)c(Cl)c1)(C(C)C)C(C#N)=C(N)O2 (stereo not drawn) [Compound 2.185.],< 100 nM
25,Cc1n[nH]c2c1C(c1ccc(OCc3ccccc3)c(Cl)c1)(C1CC1)C(C#N)=C(N)O2 (stereo not drawn) [Compound 2.186.],< 100 nM
26,Cc1n[nH]c2c1C(c1cc(Cl)cc(-c3cccc(F)c3)c1)(C1CC1)C(C#N)=C(N)O2 (stereo not drawn) [Compound 2.187.],< 100 nM
27,Cc1n[nH]c2c1C(c1cc(Cl)cc(Oc3ccc(F)cc3)c1)(C1CC1)C(C#N)=C(N)O2 (stereo not drawn) [Compound 2.189.],< 100 nM
28,Cc1n[nH]c2c1C(c1cc(Cl)cc(Oc3cccc(F)c3)c1)(C1CC1)C(C#N)=C(N)O2 (stereo not drawn) [Compound 2.190.],< 100 nM
29,Cc1n[nH]c2c1C(c1cc(C(F)(F)F)cc(C(F)(F)F)c1)(C1CCC1)C(C#N)=C(N)O2 (stereo not drawn) [Compound 2.191.],< 100 nM
30,Cc1n[nH]c2c1C(c1cccc(C#N)c1)(C1CCC1)C(C#N)=C(N)O2 (stereo not drawn) [Compound 2.192.],< 100 nM
